# Reference: patent publication EP2508198B1, “Peptides for suppressing inflammation reactions in hemodialysis” (Fresenius Medical Care Deutschland GmbH, priority 2011, dated 2014)
# Residues, ends and D or L forms follow the SMILES beside them.
# Columns and labels:
# TNF-α = assay: Whole blood from uremic patients stimulated ex vivo with LPS with or without peptides (non heated and heated), TNF-α ELISA; assay type: cell-based, human; settings: whole blood of uremic patients, LPS 1 ng/ml, 24 h; average over the tested concentrations
# Method: (§1) Whole blood studies with blood from uremic patients including heat sterilization experiments
# (§2) A first goal of this experiment was to test whether the three amino acid antiinflammatory peptide KPV (unpegylated and pegylated version "monopeptide") will retain its activity under conditions of steam sterilization at 125°C for 15 min used in the production process of dialysis modules. A second goal was to study the anti-inflammatory effect of alpha-MSH and the peptides in uremic patients, which represent the real clinical situation.
# (§3) To perform this experiment whole blood samples were taken from voluntary uremic patients (n=10) and subsequently stimulated ex vivo with lipopolysaccharide (LPS) with or without alpha-MSH, KPV or pegylated KPV (non heated and heated) and TNF-α and IL-6 release was determined by ELISA.
# (§4) 25 ml blood from 10 uremic patients (dialysis patients treated at the hospital in Konstanz, Germany) was drawn and blood values were analyzed immediately. Blood was 1:10 diluted with PBS buffer and each stimulation condition was performed in triplicates and incubated at 200 µl in 96 well plates. […]
# [1] = system: LPS-induced TNF-α release; assay: Ex vivo stimulation of human PBMCs with LPS (pre-incubation or co-stimulation with peptides), TNF-α ELISA of supernatants; assay type: cell-based; parameters: TNF-α, Donor 2 / TNF-α, Donor 3 / TNF-α, Donor 4 / TNF-α, Donor 5 / TNF-α, Donor 6 / TNF-α, MV+SD: unit not given here; settings: for TNF-α, %: % of LPS control c (100.00); for effect on LPS-induced TNF-α release ("inflammation"): pre-stimulation or co-incubation
# Method: Ex vivo stimulation of human peripheral blood mononuclear cells (PBMCs)
# For the stimulation of PBMCs the following concentrations were chosen: • LPS 1 ng/ml alone • α-MSH • ∘ 1µM; 10µM; 100µM • Peg-KPV (pegylated tripeptide) • ∘ 1µM; 10µM; 100µM; 1000µM
# The stimulation procedure was as described below:
# All cells were incubated for 24h and centrifuged at 1700 rpm and supernatants were used for TNF- α ELISA measurement according to manufacturer's protocols.
# IL-6 = assay: Whole blood from uremic patients stimulated ex vivo with LPS with or without peptides (non heated and heated), IL-6 ELISA; assay type: cell-based, human; settings: whole blood of uremic patients, LPS 1 ng/ml, 24 h; average over the tested concentrations
# Method: as §1, §2, §3, §4
# [2] = LPS 3 h pre-incubation, then LPS+peptide 24h, peptide 1 µM
# [3] = LPS 3 h pre-incubation, then LPS+peptide 24h, peptide 10 µM
# [4] = LPS 3 h pre-incubation, then LPS+peptide 24h, peptide 100 µM
# [5] = LPS 3 h pre-incubation, then LPS+peptide 24h, peptide 1000 µM
# [6] = LPS + peptide simultaneously, 24h, peptide 1 µM
# [7] = LPS + peptide simultaneously, 24h, peptide 10 µM
# [8] = LPS + peptide simultaneously, 24h, peptide 100 µM
# [9] = LPS + peptide simultaneously, 24h, peptide 1000 µM
# [10] = mean of donors, LPS 3 h pre-incubation, then LPS+peptide 24h, peptide 1 µM
# [11] = mean of donors, LPS 3 h pre-incubation, then LPS+peptide 24h, peptide 10 µM
# [12] = mean of donors, LPS 3 h pre-incubation, then LPS+peptide 24h, peptide 100 µM
# [13] = mean of donors, LPS + peptide simultaneously, 24h, peptide 1 µM
# [14] = mean of donors, LPS + peptide simultaneously, 24h, peptide 10 µM
# [15] = mean of donors, LPS + peptide simultaneously, 24h, peptide 100 µM
molecule,measurement,setting,value
"CC(=O)N[C@@H](CCCCN)C(=O)N1CCC[C@H]1C(=O)N[C@H](C(N)=O)C(C)C [KPV, Ac-Lys-Pro-Val-NH2] (Ac-Lys-Pro-Val-NH2)",average inhibition for TNF-α,TNF-α,around 30%
same,"TNF-α, %",[1]; [2],85.28%
same,"TNF-α, %",[1]; [3],83.53%
same,"TNF-α, %",[1]; [4],73.40%
same,"TNF-α, %",[1]; [5],38.98%
same,"TNF-α, %",[1]; [6],78.64%
same,"TNF-α, %",[1]; [7],74.30%
same,"TNF-α, %",[1]; [8],65.76%
same,"TNF-α, %",[1]; [9],25.35%
same,"TNF-α, Donor 2",[1]; [2],4025
same,"TNF-α, Donor 3",[1]; [2],4554
same,"TNF-α, Donor 4",[1]; [2],3541
same,"TNF-α, Donor 5",[1]; [2],2301
same,"TNF-α, Donor 6",[1]; [2],4299
same,"TNF-α, Donor 2",[1]; [3],4126
same,"TNF-α, Donor 3",[1]; [3],4387
same,"TNF-α, Donor 4",[1]; [3],3666
same,"TNF-α, Donor 5",[1]; [3],2209
same,"TNF-α, Donor 6",[1]; [3],3949
same,"TNF-α, Donor 2",[1]; [4],3542
same,"TNF-α, Donor 3",[1]; [4],5022
same,"TNF-α, Donor 4",[1]; [4],2886
same,"TNF-α, Donor 5",[1]; [4],1931
same,"TNF-α, Donor 6",[1]; [4],3731
same,"TNF-α, Donor 3",[1]; [5],1816
same,"TNF-α, Donor 4",[1]; [5],1494
same,"TNF-α, Donor 5",[1]; [5],1054
same,"TNF-α, Donor 6",[1]; [5],2482
same,"TNF-α, Donor 2",[1]; [6],3426
same,"TNF-α, Donor 3",[1]; [6],3955
same,"TNF-α, Donor 4",[1]; [6],3702
same,"TNF-α, Donor 5",[1]; [6],1893
same,"TNF-α, Donor 6",[1]; [6],3541
same,"TNF-α, Donor 2",[1]; [7],3154
same,"TNF-α, Donor 3",[1]; [7],3907
same,"TNF-α, Donor 4",[1]; [7],3369
same,"TNF-α, Donor 5",[1]; [7],1706
same,"TNF-α, Donor 6",[1]; [7],3470
same,"TNF-α, Donor 2",[1]; [8],2562
same,"TNF-α, Donor 3",[1]; [8],3505
same,"TNF-α, Donor 4",[1]; [8],3077
same,"TNF-α, Donor 5",[1]; [8],1525
same,"TNF-α, Donor 6",[1]; [8],3142
same,"TNF-α, Donor 3",[1]; [9],931
same,"TNF-α, Donor 4",[1]; [9],934
same,"TNF-α, Donor 5",[1]; [9],594
same,"TNF-α, Donor 6",[1]; [9],1801
same,"TNF-α, MV+SD","[1]; mean of donors (Donor 2 not done), LPS 3 h pre-incubation, then LPS+peptide 24h, peptide 1000 µM",1711.5
same,"TNF-α, MV+SD","[1]; mean of donors (Donor 2 not done), LPS + peptide simultaneously, 24h, peptide 1000 µM",1065
same,"TNF-α, MV+SD",[1]; [10],3744
same,"TNF-α, MV+SD",[1]; [11],3667.4
same,"TNF-α, MV+SD",[1]; [12],3222.4
same,"TNF-α, MV+SD",[1]; [13],3303.4
same,"TNF-α, MV+SD",[1]; [14],3121.2
same,"TNF-α, MV+SD",[1]; [15],2762.2
same,"effect on LPS-induced TNF-α release (""inflammation"")",[1],inhibitory effect
same,average inhibition for IL-6,IL-6,around 20%
α-MSH [α-MSH Sigma],"TNF-α, %",[1]; [2],89.62%
same,"TNF-α, %",[1]; [3],81.56%
same,"TNF-α, %",[1]; [4],54.57%
same,"TNF-α, %",[1]; [6],70.97%
same,"TNF-α, %",[1]; [7],61.67%
same,"TNF-α, %",[1]; [8],32.86%
same,"TNF-α, Donor 2",[1]; [2],5005
same,"TNF-α, Donor 3",[1]; [2],4345
same,"TNF-α, Donor 4",[1]; [2],3968
same,"TNF-α, Donor 5",[1]; [2],2070
same,"TNF-α, Donor 6",[1]; [2],4286
same,"TNF-α, Donor 2",[1]; [3],4193
same,"TNF-α, Donor 3",[1]; [3],3883
same,"TNF-α, Donor 4",[1]; [3],3674
same,"TNF-α, Donor 5",[1]; [3],1799
same,"TNF-α, Donor 6",[1]; [3],4356
same,"TNF-α, Donor 2",[1]; [4],3009
same,"TNF-α, Donor 3",[1]; [4],2886
same,"TNF-α, Donor 4",[1]; [4],2073
same,"TNF-α, Donor 5",[1]; [4],942
same,"TNF-α, Donor 6",[1]; [4],2069
same,"TNF-α, Donor 2",[1]; [6],4098
same,"TNF-α, Donor 3",[1]; [6],3273
same,"TNF-α, Donor 4",[1]; [6],3116
same,"TNF-α, Donor 5",[1]; [6],1319
same,"TNF-α, Donor 6",[1]; [6],3100
same,"TNF-α, Donor 2",[1]; [7],3734
same,"TNF-α, Donor 3",[1]; [7],2776
same,"TNF-α, Donor 4",[1]; [7],2568
same,"TNF-α, Donor 5",[1]; [7],1237
same,"TNF-α, Donor 6",[1]; [7],2638
same,"TNF-α, Donor 2",[1]; [8],1207
same,"TNF-α, Donor 3",[1]; [8],2337
same,"TNF-α, Donor 4",[1]; [8],1248
same,"TNF-α, Donor 5",[1]; [8],713
same,"TNF-α, Donor 6",[1]; [8],1386
same,"TNF-α, MV+SD",[1]; [10],3934.8
same,"TNF-α, MV+SD",[1]; [11],3581
same,"TNF-α, MV+SD",[1]; [12],2395.8
same,"TNF-α, MV+SD",[1]; [13],2981.2
same,"TNF-α, MV+SD",[1]; [14],2590.6
same,"TNF-α, MV+SD",[1]; [15],1380.2
same,"effect on LPS-induced TNF-α release (""inflammation"")",[1],inhibitory effect
